The source of these data is US8591892B2, “FTY720 increases CD74 expression and sensitizes cancer cells to anti-CD74 antibody-mediated cell death” (The Ohio State University, priority 2011, dated 2013).

For data set [1], the system named is Mino. Particulars: single agent, previous dose titration, read-out: LC50 (the source's name); cited from earlier work.
The conditions of data set [2]: single agents, same dosage and delivery schedule; cited from earlier work.
For data set [3], the system named is Z-138. Particulars: Z-138, single agent, previous dose titration; read-out: LC50 (the source's name); cited from earlier work.
The test system of data set [4] is Jeko cells engrafted in SCID mice. Kind of data set: Preclinical model of human MCL in SCID mice, survival. Particulars: n=10/group, from day 15; FTY720 5 mg/kg i.p. daily 2 weeks; antibodies 15 mg/kg i.p. every three days. In kind it is in vivo, mouse.
Description: Evaluation of in vivo therapeutic activity of FTY720 and milatuzumab in the preclinical MCL model. SCID mice were injected i.v. with 40×10^6 JeKo cells and observed daily for signs of tumor burden.
Six to eight-week old female SCID mice (cb17 scid/scid) were purchased from Taconic Farms (Hudson, N.Y.) and maintained in pathogen-free, isolation cages. All animals were depleted of murine NK cells with intra-peritoneal (i.p.) injections of 0.2 mg of rat anti-mouse interleukin-2 receptor β monoclonal antibody (TMβ1) 1 day prior to engraftment with human tumor cell lines and then every week. Forty-eight hours post intravenous injection of 40×10^6 Jeko cells via tail vein, 50 mice were randomly distributed into 10 cages. Animals in groups of ten were treated starting at day 15 after engraftment. […] The third group was treated with FTY720 (5 mg/kg) every day for 2 weeks via i.p. The fourth group received milatuzumab (15 mg/kg) every three days, via i.p. injection. The fifth group received the combination of FTY720 and milatuzumab. Animals were monitored daily for signs of tumor burden, including hind limb paralysis, respiratory distress, weight loss, ruffled coat, and distended abdomen. Body weight was measured weekly for the first 3 weeks and then daily. […]
Data set [5] deals with UPN-1. The following applies: UPN-1, single agent, previous dose titration; read-out: LC50 (the source's name); cited from earlier work.
The test system of data set [6] is primary tumor cells from MCL patients. In words: Cell viability by annexin-V/PI staining and flow cytometry. It counts as cell-based, human. Particulars: six MCL patients, 24 hours; FTY720 2.5 μM, immobilized milatuzumab 5 μg/ml. The method, then:
FIG. 4. FTY720 sensitizes MCL cell lines and primary patient tumor cells to milatuzumab-mediated cytotoxicity. (A) Four MCL cell lines and primary cells from 6 patients were treated with FTY720 and/or milatuzumab plus cross-linking antibodies at the indicated concentrations. (B) Patient characteristics. (C) Individual patient responses. (D) Representative histograms summarizing patient responses. Cell death was determined by annexin V/PI staining and flow cytometry at 24 hours. Data are shown as the percentage of annexin V−/PI− cells (live cells) and are normalized to untreated controls.
Primary tumor cells were isolated from the peripheral blood/lymph nodes of patients with MCL. All patients studied were diagnosed with MCL according to the World Health Organization (WHO) classification of tumors (Swerdlow, 2008, World Health Organization Classification of Tumours of Haematopoetic and Lymphoid Tissues (ed 4th ed.) Lyon, France, International Agency on Research for Cancer). All samples contained at least 85% of CD19^+/CD20^+ B cells detected by flow cytometry. […]
To assess lysosomal volume, FTY720 treated cells were incubated with LYSOTRACKER™ green DND-26. […] Cell viability was measured at 24 hours by dual staining with annexin-V FITC and propidium iodide (PI). A total of 10,000 events were collected and analyzed using WinMDI. […]

The conditions of data set [7]: rat, 4 mg/kg single IV dose; cited from earlier work.
For data set [8], the system named is Jeko-1. The following applies: Jeko-1, single agent, previous dose titration; read-out: LC50 (the source's name); cited from earlier work.
The conditions of data set [9]: in subjects; cited from earlier work.
The subject of data set [10] is HLA-DR and CD74 in cancer cell lines. In words: Flow cytometry of antigen expression after IFN-γ, summary over the panel. It counts as cell-based. Particulars: two-day incubation with IFN-γ, Tables 4 and 5. On the procedure:
We examined whether the ability of anti-CD74 MAbs to kill cancer cells can be increased by using IFN-γ as an inducer of antigen expression. Using a panel of diverse cancer cell lines (including NHL, MM, GBM, and pancreatic and colonic carcinomas), we examined IFN-γ-induced changes in surface and cytoplasmic CD74 expression. Sensitivity of the malignant cells to milatuzumab was assessed with and without IFN-γ by cytotoxicity assays.
Expression of CD74, HLA-DR, and carcinoembryonic antigen (CEACAM5) was determined in untreated cells and cells exposed to 200 U of IFN-γ for 48 h by flow cytometry. Cells were stained with directly labeled MAbs in comparison to a directly labeled human IgG control. Antibodies were labeled using ALEXA FLUOR® 488 (Invitrogen, Carlsbad, Calif.). For determination of cytoplasmic antigen expression, cells were permeabilized prior to staining using the BD CYTOFIX/CYTOPERM™ kit (BD Biosciences, San Jose, Calif.).
Two-day incubation with IFN-γ increased surface and cytoplasmic expression of CD74 and HLA-DR (Table 4, Table 5). In all 4 colon cancer lines, IFN-γ increased cytoplasmic expression of both antigens, and surface expression of HLA-DR in ¾ and CD74 in 2/4 (Table 4, Table 5). Upregulation of HLA-DR and CD74 ranged from 23-3700% (Table 4, Table 5).
A general note: Flow cytometry measures light scatter and fluorescence of single cells or particles in a stream.

For data set [11], the system named is CD74 in 3 human AML cell lines. In words: Flow cytometry of CD74 with/without permeabilization and IFN-γ. In kind it is cell-based. The following applies: 3 AML lines, IFN-γ 40 and 200 U/mL. The method, then:
CD74 expression in bone marrow biopsy (BMB) specimens from non-M3 AML patients was evaluated by immunohistochemistry and, for 3 human AML cell lines, by flow cytometry, with/without permeabilization and with/without IFN-γ (40 and 200 U/mL). These cell lines were also tested in proliferation assays for responses to milatuzumab, with/without IFN-γ. In 13/14 BMB specimens, there was moderate to strong CD74 expression by leukemic blasts, which was mostly intracellular, usually with a perinuclear distribution (data not shown). […] IFN-γ induced intracellular CD74 in all 3 lines (from 85%-868%) (not shown).

As for `CCCCCCCCc1ccc(CCC(N)(CO)CO)cc1` [FTY720, fingolimod], the CC50 in data set [1] was 7.5 µM; in [3] it was 7.5 µM; in data set [5], 7.5 µM; in [8] it was 12.5 µM. In addition, the “weight loss or other side effects” value in data set [2] is recorded as “did not cause any observed weight loss or other significant side effects”. The median survival in [4] was found to be 31 days. The average cell death in data set [6] is recorded as 47%. Besides, the maximum plasma concentration in [7] is 3.5 µM.
For the molecule “veltuzumab: humanized IgG1 antibody against CD20”, the immunogenicity entry in data set [9] is “less immunogenic in subjects than rituximab”.

B1: IFN-γ: interferon-γ, agent inducing CD74 expression (protein, UniProt P01579 24-161, looked up)
Interferon gamma: QDPYVKEAENLKKYFNAGHSDVADNGTLFLGILKNWKEESDRKIMQSQIVSFYFKLFKNFKDDQSIQKSVETIKEDMNVKFFNSNKKKRDDFEKLTNYSVTDLNVQRKAIHELIQVMAELSPAAKTGKRKRSQMLFRG
Turning to B1, the “upregulation of HLA-DR and CD74” value in data set [10] was 23-3700%. Further, in data set [11], the “upregulation of surface CD74” value is reported as 69-117%.
